From patent US12479847B2 (DANA-FARBER CANCER INSTITUTE, INC., priority 2019, dated 2025)

Target: human LRRK2 kinase (Homo sapiens, UniProt Q5S007)
Settings: LRRK2, ADP-Glo, ATP 10 μM, 60 minutes at 25° C.

Chain of human LRRK2 kinase (Q5S007 whole entry): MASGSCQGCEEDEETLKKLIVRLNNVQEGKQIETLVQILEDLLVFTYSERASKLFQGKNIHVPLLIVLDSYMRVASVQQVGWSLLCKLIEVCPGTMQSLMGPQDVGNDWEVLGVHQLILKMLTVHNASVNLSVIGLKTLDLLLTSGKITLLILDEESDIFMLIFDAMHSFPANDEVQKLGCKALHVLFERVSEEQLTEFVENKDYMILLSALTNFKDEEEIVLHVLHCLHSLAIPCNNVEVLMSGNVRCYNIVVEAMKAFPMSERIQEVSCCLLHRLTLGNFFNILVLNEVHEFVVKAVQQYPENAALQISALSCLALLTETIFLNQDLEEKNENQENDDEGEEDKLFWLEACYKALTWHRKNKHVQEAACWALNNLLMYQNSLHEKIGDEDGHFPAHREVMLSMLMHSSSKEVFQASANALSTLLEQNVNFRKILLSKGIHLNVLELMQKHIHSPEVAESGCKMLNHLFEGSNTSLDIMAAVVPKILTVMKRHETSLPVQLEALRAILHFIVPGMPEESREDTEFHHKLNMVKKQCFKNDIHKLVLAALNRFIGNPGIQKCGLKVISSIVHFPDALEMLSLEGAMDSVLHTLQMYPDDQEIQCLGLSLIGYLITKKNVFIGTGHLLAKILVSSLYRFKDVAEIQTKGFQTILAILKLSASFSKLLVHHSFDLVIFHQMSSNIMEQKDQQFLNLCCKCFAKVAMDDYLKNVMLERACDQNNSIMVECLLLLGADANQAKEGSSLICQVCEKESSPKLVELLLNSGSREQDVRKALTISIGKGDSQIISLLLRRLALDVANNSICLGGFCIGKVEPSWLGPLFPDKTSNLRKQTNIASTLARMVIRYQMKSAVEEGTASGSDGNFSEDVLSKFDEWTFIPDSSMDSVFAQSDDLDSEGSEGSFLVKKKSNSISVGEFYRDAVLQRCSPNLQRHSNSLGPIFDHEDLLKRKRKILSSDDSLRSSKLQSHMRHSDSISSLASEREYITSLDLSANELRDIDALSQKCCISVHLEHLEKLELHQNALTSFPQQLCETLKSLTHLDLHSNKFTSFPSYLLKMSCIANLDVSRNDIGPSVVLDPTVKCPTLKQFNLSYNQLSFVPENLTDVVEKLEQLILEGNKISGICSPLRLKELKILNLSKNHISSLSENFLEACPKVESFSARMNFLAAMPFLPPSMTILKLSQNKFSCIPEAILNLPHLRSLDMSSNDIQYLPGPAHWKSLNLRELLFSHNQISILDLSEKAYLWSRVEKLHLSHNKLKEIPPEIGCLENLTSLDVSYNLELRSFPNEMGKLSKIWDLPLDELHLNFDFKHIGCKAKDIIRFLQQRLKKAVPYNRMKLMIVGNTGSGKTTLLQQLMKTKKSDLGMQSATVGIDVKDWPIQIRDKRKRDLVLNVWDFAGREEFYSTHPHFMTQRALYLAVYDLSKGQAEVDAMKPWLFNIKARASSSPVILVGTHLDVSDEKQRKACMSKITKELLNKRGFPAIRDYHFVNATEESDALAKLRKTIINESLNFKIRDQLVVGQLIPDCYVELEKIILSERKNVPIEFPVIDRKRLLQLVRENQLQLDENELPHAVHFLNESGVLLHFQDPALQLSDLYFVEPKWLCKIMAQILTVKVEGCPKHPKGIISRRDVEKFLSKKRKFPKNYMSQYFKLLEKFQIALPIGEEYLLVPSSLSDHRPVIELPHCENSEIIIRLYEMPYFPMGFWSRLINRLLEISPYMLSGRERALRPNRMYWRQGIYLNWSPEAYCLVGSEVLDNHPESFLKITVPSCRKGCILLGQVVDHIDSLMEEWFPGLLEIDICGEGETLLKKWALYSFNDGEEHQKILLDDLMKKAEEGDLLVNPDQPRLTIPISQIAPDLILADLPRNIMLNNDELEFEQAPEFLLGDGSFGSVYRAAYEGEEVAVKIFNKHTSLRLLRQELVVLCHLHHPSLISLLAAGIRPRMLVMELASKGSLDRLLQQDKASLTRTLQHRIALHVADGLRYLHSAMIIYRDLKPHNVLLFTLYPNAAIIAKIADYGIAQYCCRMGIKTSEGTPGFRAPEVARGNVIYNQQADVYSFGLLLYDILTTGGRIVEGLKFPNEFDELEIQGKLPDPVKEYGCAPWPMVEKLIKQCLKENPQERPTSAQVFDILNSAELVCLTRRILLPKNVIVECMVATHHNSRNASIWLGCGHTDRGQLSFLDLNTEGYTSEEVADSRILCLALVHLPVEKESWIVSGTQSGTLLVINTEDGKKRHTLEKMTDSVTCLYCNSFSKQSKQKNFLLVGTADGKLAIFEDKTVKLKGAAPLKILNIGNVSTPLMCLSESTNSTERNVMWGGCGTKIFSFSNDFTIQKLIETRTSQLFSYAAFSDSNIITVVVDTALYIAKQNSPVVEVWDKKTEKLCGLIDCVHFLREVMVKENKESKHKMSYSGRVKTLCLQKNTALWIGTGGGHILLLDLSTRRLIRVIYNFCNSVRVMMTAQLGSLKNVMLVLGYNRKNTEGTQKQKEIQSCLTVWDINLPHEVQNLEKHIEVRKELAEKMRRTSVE

| IC50 [nM] | SMILES |
| --- | --- |
| 10 to 100 | COc1cc(S(=O)(=O)N2CCOCC2)ccc1Nc1nc(NC2CC2)c2c(Cl)c[nH]c2n1 [Compound 24, 5-chloro-N4-cyclopropyl-N2-(2-methoxy-4-(morpholinosulfonyl)phenyl)-7H-pyrrolo[2,3-d]pyrimidine-2,4-diamine] |
| < 10 | COc1cc(S(=O)(=O)N2CCC(N3CCOCC3)CC2)ccc1Nc1nc(NC2CC2)c2c(Cl)c[nH]c2n1 [Compound 25, 5-chloro-N4-cyclopropyl-N2-(2-methoxy-4-((4-morpholinopiperidin-1-yl)sulfonyl)phenyl)-7H-pyrrolo[2,3-d]pyrimidine-2,4-diamine] |
| < 10 | COc1cc(S(C)(=O)=O)ccc1Nc1nc(NC2CC2)c2c(Cl)c[nH]c2n1 [Compound 26, 5-chloro-N4-cyclopropyl-N2-(2-methoxy-4-(methylsulfonyl)phenyl)-7H-pyrrolo[2,3-d]pyrimidine-2,4-diamine] |
| < 10 | O=C(c1ccc(Nc2nc(NC3CC3)c3c(Cl)c[nH]c3n2)c2c1OCCO2)N1CCOCC1 [Compound 27, (8-((5-chloro-4-(cyclopropylamino)-7H-pyrrolo[2,3-d]pyrimidin-2-yl)amino)-2,3-dihydrobenzo[b][1,4]dioxin-5-yl)(morpholino)methanone] |
| 100 to 1000 | COc1cc(S(=O)(=O)N2CCC(N3CCOCC3)CC2)ccc1Nc1nc(NC2CCC2)c2c(Cl)c[nH]c2n1 [Compound 28, 5-chloro-N4-cyclobutyl-N2-(2-methoxy-4-((4-morpholinopiperidin-1-yl)sulfonyl)phenyl)-7H-pyrrolo[2,3-d]pyrimidine-2,4-diamine] |
| 10 to 100 | COc1cc(S(C)(=O)=O)ccc1Nc1nc(NC2CCC2)c2c(Cl)c[nH]c2n1 [Compound 29, 5-chloro-N4-cyclobutyl-N2-(2-methoxy-4-(methylsulfonyl)phenyl)-7H-pyrrolo[2,3-d]pyrimidine-2,4-diamine] |
| < 10 | O=C(c1ccc(Nc2nc(NC3CCC3)c3c(Cl)c[nH]c3n2)c2c1OCCO2)N1CCOCC1 [Compound 30, (8-((5-chloro-4-(cyclobutylamino)-7H-pyrrolo[2,3-d]pyrimidin-2-yl)amino)-2,3-dihydrobenzo[b][1,4]dioxin-5-yl)(morpholino)methanone] |
| 100 to 1000 | COc1cc(S(=O)(=O)N2CCOCC2)ccc1Nc1nc(NCC(C)C)c2c(Cl)c[nH]c2n1 [Compound 31, 5-chloro-N4-isobutyl-N2-(2-methoxy-4-(morpholinosulfonyl)phenyl)-7H-pyrrolo[2,3-d]pyrimidine-2,4-diamine] |
| 100 to 1000 | COc1cc(S(C)(=O)=O)ccc1Nc1nc(NCC(C)C)c2c(Cl)c[nH]c2n1 [Compound 32, 5-chloro-N4-isobutyl-N2-(2-methoxy-4-(methylsulfonyl)phenyl)-7H-pyrrolo[2,3-d]pyrimidine-2,4-diamine] |
| 100 to 1000 | COc1cc(S(=O)(=O)N2CCOCC2)ccc1Nc1nc(NCC2CCCC2)c2c(Cl)c[nH]c2n1 [Compound 45, 5-chloro-N4-(cyclopentylmethyl)-N2-(2-methoxy-4-(morpholinosulfonyl)phenyl)-7H-pyrrolo[2,3-d]pyrimidine-2,4-diamine] |
| 100 to 1000 | O=C(c1ccc(Nc2nc(NCC3CCCC3)c3c(Cl)c[nH]c3n2)c2c1OCCO2)N1CCOCC1 [Compound 46, (8-((5-chloro-4-((cyclopentylmethyl)amino)-7H-pyrrolo[2,3-d]pyrimidin-2-yl)amino)-2,3-dihydrobenzo[b][1,4]dioxin-5-yl)(morpholino)methanone] |
| 100 to 1000 | CC[C@@H](C)Nc1nc(Nc2ccc(S(=O)(=O)N3CCOCC3)cc2OC)nc2[nH]cc(Cl)c12 [Compound 47, (R)—N4-(sec-butyl)-5-chloro-N2-(2-methoxy-4-(morpholinosulfonyl)phenyl)-7H-pyrrolo[2,3-d]pyrimidine-2,4-diamine] |
| 100 to 1000 | CC[C@@H](C)Nc1nc(Nc2ccc(S(=O)(=O)N3CCC(N4CCOCC4)CC3)cc2OC)nc2[nH]cc(Cl)c12 [Compound 48, (R)—N4-(sec-butyl)-5-chloro-N2-(2-methoxy-4-((4-morpholinopiperidin-1-yl)sulfonyl)phenyl)-7H-pyrrolo[2,3-d]pyrimidine-2,4-diamine] |
| 10 to 100 | CC[C@@H](C)Nc1nc(Nc2ccc(S(C)(=O)=O)cc2OC)nc2[nH]cc(Cl)c12 [Compound 49, (R)—N4-(sec-butyl)-5-chloro-N2-(2-methoxy-4-(methylsulfonyl)phenyl)-7H-pyrrolo[2,3-d]pyrimidine-2,4-diamine] |
| < 10 | CC[C@@H](C)Nc1nc(Nc2ccc(C(=O)N3CCOCC3)c3c2OCCO3)nc2[nH]cc(Cl)c12 [Compound 50, (R)-(8-((4-(sec-butylamino)-5-chloro-7H-pyrrolo[2,3-d]pyrimidin-2-yl)amino)-2,3-dihydrobenzo[b][1,4]dioxin-5-yl)(morpholino)methanone] |
| 100 to 1000 | COc1cc(S(=O)(=O)N2CCOCC2)ccc1Nc1nc(NC2CCCC2)c2c(Cl)c[nH]c2n1 [Compound 55, 5-chloro-N4-cyclopentyl-N2-(2-methoxy-4-(morpholinosulfonyl)phenyl)-7H-pyrrolo[2,3-d]pyrimidine-2,4-diamine] |

| IC50 [nM] | SMILES |
| --- | --- |
| 10 to 100 | COc1cc(S(=O)(=O)N2CCC(N3CCOCC3)CC2)ccc1Nc1nc(NC2CCCC2)c2c(Cl)c[nH]c2n1 [Compound 56, 5-chloro-N4-cyclopentyl-N2-(2-methoxy-4-((4-morpholinopiperidin-1-yl)sulfonyl)phenyl)-7H-pyrrolo[2,3-d]pyrimidine-2,4-diamine] |
| 100 to 1000 | COc1cc(S(C)(=O)=O)ccc1Nc1nc(NC2CCCC2)c2c(Cl)c[nH]c2n1 [Compound 57, 5-chloro-N4-cyclopentyl-N2-(2-methoxy-4-(methylsulfonyl)phenyl)-7H-pyrrolo[2,3-d]pyrimidine-2,4-diamine] |
| 100 to 1000 | COc1cc(S(=O)(=O)N2CCOCC2)ccc1Nc1nc(NC2CCCCC2)c2c(Cl)c[nH]c2n1 [Compound 58, 5-chloro-N4-cyclohexyl-N2-(2-methoxy-4-(morpholinosulfonyl)phenyl)-7H-pyrrolo[2,3-d]pyrimidine-2,4-diamine] |
| 100 to 1000 | COc1cc(S(C)(=O)=O)ccc1Nc1nc(NC2CCCCC2)c2c(Cl)c[nH]c2n1 [Compound 59, 5-chloro-N4-cyclohexyl-N2-(2-methoxy-4-(methylsulfonyl)phenyl)-7H-pyrrolo[2,3-d]pyrimidine-2,4-diamine] |
| 10 to 100 | COc1cc(S(=O)(=O)N2CCOCC2)ccc1Nc1nc(N[C@H]2CCOC2)c2c(Cl)c[nH]c2n1 [Compound 60, (S)-5-chloro-N2-(2-methoxy-4-(morpholinosulfonyl)phenyl)-N4-(tetrahydrofuran-3-yl)-7H-pyrrolo[2,3-d]pyrimidine-2,4-diamine] |
| < 10 | COc1cc(S(=O)(=O)N2CCC(N3CCOCC3)CC2)ccc1Nc1nc(N[C@H]2CCOC2)c2c(Cl)c[nH]c2n1 [Compound 61, (S)-5-chloro-N2-(2-methoxy-4-((4-morpholinopiperidin-1-yl)sulfonyl)phenyl)-N4-(tetrahydrofuran-3-yl)-7H-pyrrolo[2,3-d]pyrimidine-2,4-diamine] |
| < 10 | COc1cc(S(=O)(=O)N2CCOCC2)ccc1Nc1nc(NC2CCOCC2)c2c(Cl)c[nH]c2n1 [Compound 62, 5-chloro-N2-(2-methoxy-4-(morpholinosulfonyl)phenyl)-N4-(tetrahydro-2H-pyran-4-yl)-7H-pyrrolo[2,3-d]pyrimidine-2,4-diamine] |
| 10 to 100 | COc1cc(S(C)(=O)=O)ccc1Nc1nc(NC2CCOCC2)c2c(Cl)c[nH]c2n1 [Compound 63, 5-chloro-N2-(2-methoxy-4-(methylsulfonyl)phenyl)-N4-(tetrahydro-2H-pyran-4-yl)-7H-pyrrolo[2,3-d]pyrimidine-2,4-diamine] |
| 10 to 100 | COc1cc(S(C)(=O)=O)ccc1Nc1nc(NCC2CC2)c2c(Cl)c[nH]c2n1 [Compound 64, 5-chloro-N4-(cyclopropylmethyl)-N2-(2-methoxy-4-(methylsulfonyl)phenyl)-7H-pyrrolo[2,3-d]pyrimidine-2,4-diamine] |
| < 10 | O=C(c1ccc(Nc2nc(NCC3CC3)c3c(Cl)c[nH]c3n2)c2c1OCCO2)N1CCOCC1 [Compound 65, (8-((5-chloro-4-((cyclopropylmethyl)amino)-7H-pyrrolo[2,3-d]pyrimidin-2-yl)amino)-2,3-dihydrobenzo[b][1,4]dioxin-5-yl)(morpholino)methanone] |
| 100 to 1000 | COc1cc(S(C)(=O)=O)ccc1Nc1nc(NCC2CCC2)c2c(Cl)c[nH]c2n1 [Compound 66, 5-chloro-N4-(cyclobutylmethyl)-N2-(2-methoxy-4-(methylsulfonyl)phenyl)-7H-pyrrolo[2,3-d]pyrimidine-2,4-diamine] |
| 100 to 1000 | COc1cc(S(=O)(=O)N2CCC(N3CCOCC3)CC2)ccc1Nc1nc(NCC2CCCC2)c2c(Cl)c[nH]c2n1 [Compound 67, 5-chloro-N4-(cyclopentylmethyl)-N2-(2-methoxy-4-((4-morpholinopiperidin-1-yl)sulfonyl)phenyl)-7H-pyrrolo[2,3-d]pyrimidine-2,4-diamine] |
| 10 to 100 | COc1cc(S(=O)(=O)N2CCOCC2)ccc1Nc1nc(NCCS(C)(=O)=O)c2c(Cl)c[nH]c2n1 [Compound 68, 5-chloro-N2-(2-methoxy-4-(morpholinosulfonyl)phenyl)-N4-(2-(methylsulfonyl)ethyl)-7H-pyrrolo[2,3-d]pyrimidine-2,4-diamine] |
| < 10 | COc1cc(S(=O)(=O)N2CCC(N3CCOCC3)CC2)ccc1Nc1nc(NCCS(C)(=O)=O)c2c(Cl)c[nH]c2n1 [Compound 69, 5-chloro-N2-(2-methoxy-4-((4-morpholinopiperidin-1-yl)sulfonyl)phenyl)-N4-(2-(methylsulfonyl)ethyl)-7H-pyrrolo[2,3-d]pyrimidine-2,4-diamine] |
| < 10 | CS(=O)(=O)CCNc1nc(Nc2ccc(C(=O)N3CCOCC3)c3c2OCCO3)nc2[nH]cc(Cl)c12 [Compound 70, (8-((5-chloro-4-((2-(methylsulfonyl)ethyl)amino)-7H-pyrrolo[2,3-d]pyrimidin-2-yl)amino)-2,3-dihydrobenzo[b][1,4]dioxin-5-yl)(morpholino)methanone] |
| 10 to 100 | CCCCNc1nc(Nc2ccc(S(=O)(=O)N3CCOCC3)cc2OC)nc2[nH]cc(Cl)c12 [Compound 71, N4-butyl-5-chloro-N2-(2-methoxy-4-(morpholinosulfonyl)phenyl)-7H-pyrrolo[2,3-d]pyrimidine-2,4-diamine] |
